Read-outs that look alike come from different tables or passages of the source.
Experiments:
HbA1c [1] = experiment: BETonMACE Phase 3 trial (NCT02586155), post-hoc analysis of HbA1c from baseline to last visit on treatment (LVT); assay type: in vivo, human
Experimental: Apabetalone (RVX-208) was evaluated in a recently completed clinical Phase 3 trial (BETonMACE; NCT02586155) for the effect on MACE in type 2 diabetes patients with low HDL cholesterol (below 40 mg/dL for males and below 45 mg/dL for females) and a recent acute coronary syndrome (ACS) (preceding 7-90 days). All patients received high intensity statin treatment or maximum tolerated statin treatment, which was 20-40 mg daily or a maximum daily dose of 40 mg for rosuvastatin or 40-80 mg daily or a maximum daily dose of 80 mg for atorvastatin.
Patients (n=2425) with ACS in the preceding 7 to 90 days, with type 2 diabetes and low HDL cholesterol (≤40 mg/dl for men, ≤45 mg/dl for women), receiving intensive or maximum-tolerated therapy with atorvastatin or rosuvastatin, were assigned in double-blind fashion to receive apabetalone 100 mg orally twice daily or matching placebo.
Specifically, a total of 150 patients received both RVX-208 and an SGLT2 inhibitor; a total of 148 received an SGLT2 inhibitor, but no RVX-208; a total of 1062 received RVX-208, but no SGLT2 inhibitor; a total of 1058 received neither RVX-208 or an SGLT2 inhibitor.
Patients who were randomized and received at least one dose of SGLT2 treatment while actively receiving study drug (RVX-208 or placebo) were counted as those receiving a combination of SGLT2 treatment with either RVX-208 or placebo. Patients receiving more than one drug therapy within the SGLT2 inhibitor class were counted only once based upon whichever drug therapy patients continued taking at the end of treatment with study drug (RVX-208 or placebo). In cases where patients were receiving more than one drug therapy within the SGLT2 inhibitor class at the end of treatment with study drug, whichever SGLT2 inhibitor therapy was received for longer was counted.
The last visit on treatment (LVT) timepoint represented the longest study exposure duration for patients receiving RVX-208 or placebo with and without SGLT2 inhibitors and is the focus of this analysis.

HbA1c [2] = conditions: over the duration of the trial; 95% CI −0.61 to −0.56; p<0.001; cited from earlier work
HbA1c [3] = conditions: T2DM and albuminuric CKD, cited from earlier work
HbA1c [4] = conditions: cited from earlier work

COc1cc(OC)c2c(=O)[nH]c(-c3cc(C)c(OCCO)c(C)c3)nc2c1 [RVX-208, 2-(4-(2-hydroxyethoxy)-3,5-dimethylphenyl)-5,7-dimethoxyquinazolin-4(3H)-one]
ability to reduce levels of HbA1c (in words) (HbA1c [1]; T2DM patients with a recent ACS): did not demonstrate the ability to statistically reduce levels of HbA1c
median HbA1c at baseline (HbA1c [1]; T2DM patients with low HDL cholesterol and recent ACS on high intensity or maximum tolerated statin, baseline value of the group): 7.3%
median HbA1c at the last visit on treatment (LVT) (HbA1c [1]; T2DM patients with recent ACS on statin, apabetalone 100 mg orally twice daily where given, median time to LVT about 2 years): 7.3%
median change of HbA1c from baseline to LVT (HbA1c [1]; T2DM patients with recent ACS, FIG. 3): +0.20%
mean change of HbA1c from baseline to LVT (HbA1c [1]; T2DM patients with recent ACS, FIG. 4): +0.22%

Cc1ccc([C@@H]2O[C@H](CO)[C@@H](O)[C@H](O)[C@H]2O)cc1Cc1ccc(-c2ccc(F)cc2)s1 [canagliflozin]
mean difference in HbA1c between drug group and placebo group (HbA1c [2]): −0.58%
least-squares mean level of HbA1c lower than in the placebo group by (HbA1c [3]; at 13 weeks, 95% CI 0.26 to 0.37): 0.31%
overall mean difference in the reduction of HbA1c versus placebo (HbA1c [3]; throughout the trial, 95% CI 0.20 to 0.31): 0.25%

OC[C@H]1O[C@@H](c2ccc(Cl)c(Cc3ccc(O[C@H]4CCOC4)cc3)c2)[C@H](O)[C@@H](O)[C@@H]1O [empagliflozin]
reduction of HbA1c compared to placebo (adjusted mean difference) (HbA1c [4]; 10-mg group, after 12 weeks, 95% CI −0.58 to −0.49): 0.54%
adjusted mean difference in HbA1c levels versus placebo (HbA1c [4]; 10-mg group, week 94, 95% CI −0.48 to −0.36): −0.42%
adjusted mean difference in HbA1c levels versus placebo (HbA1c [4]; 10-mg group, week 206, 95% CI −0.40 to −0.08): −0.24%
adjusted mean difference in HbA1c compared to placebo (HbA1c [4]; 25-mg group, after 12 weeks, 95% CI −0.64 to −0.55): −0.60 percentage points
adjusted mean difference in HbA1c levels versus placebo (HbA1c [4]; 25-mg group, week 94, 95% CI −0.54 to −0.41): −0.47%
adjusted mean difference in HbA1c levels versus placebo (HbA1c [4]; 25-mg group, week 206, 95% CI −0.51 to −0.20): −0.36%

From patent US20230398137A1, “METHODS FOR LOWERING HBA1C LEVEL WITH A COMBINATION OF A BET BROMODOMAIN INHIBITOR AND A SODIUM DEPENDENT GLUCOSE TRANSPORT 2 INHIBITOR” (Resverlogix Corp., priority 2020, published 2023)
